The target in experiment [1] is T1, Serine/threonine-protein kinase haspin (Homo sapiens) (UniProt Q8TF76).
T1 sequence (whole entry): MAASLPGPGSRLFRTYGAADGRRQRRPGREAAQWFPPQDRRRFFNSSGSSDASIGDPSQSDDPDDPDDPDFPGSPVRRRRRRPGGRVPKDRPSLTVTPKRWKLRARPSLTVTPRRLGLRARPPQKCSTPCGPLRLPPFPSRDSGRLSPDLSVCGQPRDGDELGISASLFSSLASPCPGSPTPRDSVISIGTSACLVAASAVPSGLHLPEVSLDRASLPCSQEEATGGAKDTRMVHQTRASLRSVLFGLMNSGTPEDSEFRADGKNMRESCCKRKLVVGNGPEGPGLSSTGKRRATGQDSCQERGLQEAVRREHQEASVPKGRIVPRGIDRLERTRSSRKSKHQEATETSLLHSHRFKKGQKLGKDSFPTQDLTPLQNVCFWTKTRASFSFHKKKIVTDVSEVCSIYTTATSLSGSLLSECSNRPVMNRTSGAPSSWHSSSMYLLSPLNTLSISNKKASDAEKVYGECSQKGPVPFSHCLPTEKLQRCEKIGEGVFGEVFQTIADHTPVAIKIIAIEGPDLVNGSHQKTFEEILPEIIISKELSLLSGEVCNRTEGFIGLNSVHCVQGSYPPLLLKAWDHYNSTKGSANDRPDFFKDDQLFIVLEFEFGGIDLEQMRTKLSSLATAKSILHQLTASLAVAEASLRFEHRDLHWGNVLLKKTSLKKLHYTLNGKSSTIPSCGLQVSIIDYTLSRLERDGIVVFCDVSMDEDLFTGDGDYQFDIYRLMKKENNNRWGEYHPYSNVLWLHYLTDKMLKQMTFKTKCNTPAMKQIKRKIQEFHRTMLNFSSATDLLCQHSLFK
Kind of experiment: Selectivity interaction (KinomeScan (DiscoverX)) EUB0001550a GSG2. As to conditions: at 1 µM.

In experiment [2] the target is T2, Serine/threonine-protein kinase ULK1 (Homo sapiens) (UniProt O75385).
T2 sequence (whole entry): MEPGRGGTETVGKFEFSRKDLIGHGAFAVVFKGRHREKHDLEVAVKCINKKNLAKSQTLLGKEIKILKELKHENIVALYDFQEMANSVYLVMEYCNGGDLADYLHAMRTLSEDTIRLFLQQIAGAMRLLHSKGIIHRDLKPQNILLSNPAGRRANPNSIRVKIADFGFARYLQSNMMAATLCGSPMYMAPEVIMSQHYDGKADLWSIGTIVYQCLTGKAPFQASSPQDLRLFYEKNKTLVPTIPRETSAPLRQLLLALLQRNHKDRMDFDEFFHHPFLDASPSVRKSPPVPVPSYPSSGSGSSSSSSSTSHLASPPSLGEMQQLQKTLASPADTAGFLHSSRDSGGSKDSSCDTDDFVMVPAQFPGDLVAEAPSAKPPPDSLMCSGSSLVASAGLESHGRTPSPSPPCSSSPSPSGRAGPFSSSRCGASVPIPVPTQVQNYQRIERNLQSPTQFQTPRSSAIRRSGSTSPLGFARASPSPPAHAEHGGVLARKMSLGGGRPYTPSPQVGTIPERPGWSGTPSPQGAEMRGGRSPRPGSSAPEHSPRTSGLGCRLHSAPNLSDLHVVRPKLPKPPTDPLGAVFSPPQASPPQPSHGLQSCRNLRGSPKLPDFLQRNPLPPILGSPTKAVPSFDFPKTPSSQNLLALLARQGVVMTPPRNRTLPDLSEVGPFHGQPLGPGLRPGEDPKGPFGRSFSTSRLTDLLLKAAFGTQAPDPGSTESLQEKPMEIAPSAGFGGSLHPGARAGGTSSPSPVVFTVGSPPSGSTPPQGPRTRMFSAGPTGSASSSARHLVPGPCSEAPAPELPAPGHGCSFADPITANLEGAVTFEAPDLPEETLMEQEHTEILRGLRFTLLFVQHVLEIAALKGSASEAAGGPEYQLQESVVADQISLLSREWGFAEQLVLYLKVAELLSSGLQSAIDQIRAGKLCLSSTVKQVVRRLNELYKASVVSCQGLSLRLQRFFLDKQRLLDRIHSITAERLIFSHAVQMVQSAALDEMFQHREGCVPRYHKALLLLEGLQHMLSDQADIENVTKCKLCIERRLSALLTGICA
As to conditions: at 10 µM.

Experiment [3] concerns the target T3, Scaffold protein ILK (Homo sapiens) (UniProt Q13418).
T3 sequence (whole entry): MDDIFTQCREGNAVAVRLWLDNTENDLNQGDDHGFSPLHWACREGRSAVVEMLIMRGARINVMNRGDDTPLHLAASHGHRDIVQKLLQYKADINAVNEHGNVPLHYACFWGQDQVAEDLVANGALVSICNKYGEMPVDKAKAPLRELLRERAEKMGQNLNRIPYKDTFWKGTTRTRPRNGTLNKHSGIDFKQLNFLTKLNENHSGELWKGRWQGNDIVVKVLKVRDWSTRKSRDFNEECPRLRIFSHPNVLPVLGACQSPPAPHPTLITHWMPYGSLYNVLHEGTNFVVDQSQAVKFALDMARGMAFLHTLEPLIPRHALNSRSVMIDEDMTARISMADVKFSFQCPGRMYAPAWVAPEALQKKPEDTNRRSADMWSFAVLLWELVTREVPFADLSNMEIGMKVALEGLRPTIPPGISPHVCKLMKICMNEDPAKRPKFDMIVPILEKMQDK
Kind of experiment: Selectivity interaction (ActivX KiNativ screen (kinase selectivity in THP-1 cell lysates)) EUB0000639a ILK. In kind it is subcellular. Conditions: lysate, at 0.2 µM.

Experiment [4] has as its target Serine/threonine-protein kinase MARK2 (Homo sapiens) (UniProt Q7KZI7). The experiment in a line: Selectivity interaction (ActivX KiNativ screen (kinase selectivity in THP-1 cell lysates)) EUB0000639a MARK2. As to conditions: lysate, at 5 µM. In kind it is subcellular.

Serine/threonine-protein kinase MARK2 (Homo sapiens), sequence (Q7KZI7 whole entry): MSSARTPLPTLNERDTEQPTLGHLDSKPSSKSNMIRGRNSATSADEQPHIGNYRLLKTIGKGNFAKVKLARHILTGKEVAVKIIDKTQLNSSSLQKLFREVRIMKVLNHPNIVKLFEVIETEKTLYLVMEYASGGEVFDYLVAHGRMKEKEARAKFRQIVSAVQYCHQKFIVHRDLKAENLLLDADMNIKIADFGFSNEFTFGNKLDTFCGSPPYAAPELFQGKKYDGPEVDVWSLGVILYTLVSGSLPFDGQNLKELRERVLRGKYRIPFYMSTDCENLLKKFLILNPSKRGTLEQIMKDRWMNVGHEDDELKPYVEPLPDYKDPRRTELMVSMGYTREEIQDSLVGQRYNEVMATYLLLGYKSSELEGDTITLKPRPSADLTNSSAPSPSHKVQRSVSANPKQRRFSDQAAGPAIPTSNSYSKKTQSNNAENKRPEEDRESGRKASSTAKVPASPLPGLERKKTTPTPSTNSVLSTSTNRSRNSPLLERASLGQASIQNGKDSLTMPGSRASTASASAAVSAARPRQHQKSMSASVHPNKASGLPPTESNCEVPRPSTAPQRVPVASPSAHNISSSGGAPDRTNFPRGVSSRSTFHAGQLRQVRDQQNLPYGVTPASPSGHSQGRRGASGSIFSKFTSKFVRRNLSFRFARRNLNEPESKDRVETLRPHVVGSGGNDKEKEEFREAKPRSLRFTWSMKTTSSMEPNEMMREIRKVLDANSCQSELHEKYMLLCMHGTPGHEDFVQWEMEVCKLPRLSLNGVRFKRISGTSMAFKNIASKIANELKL

`CN(C)CC#Cc1ccc2[nH]c3c(c2c1)-c1nc(N)ncc1CCC3` yielded a % of control in experiment [1] of 13%.

The molecule `Cc1cc([C@@H](C)Nc2ccccc2C(=O)O)c2nc(N3CCOCC3)cc(=O)n2c1` [AZD-6482] showed a % of control in experiment [2] of 91%.

As to `CC[C@@H]1[C@H](F)C(=O)N[C@@H]1COc1nccc2cc(C(N)=O)c(OC)cc12` [ZIMLOVISERTIB], the % of inhibition in experiment [3] was -10.7%; in experiment [4], 51.5%.
